In patent US7638512B2, “Phenylaminopropanol derivatives and methods of their use” (Wyeth, priority 2004, dated 2009) one finds inhibition data, which are given here for 16 molecules.

Where a name gives a salt, the structure may show the parent alone.

The target of the assay is T1, human hNET (Homo sapiens, UniProt P23975).
T1 construct: expressed in transfected cells
The experiment in a line: Norepinephrine (NE) uptake assay. To be noted: 1 μM test compound; MDCK-Net6 cells stably transfected with human hNET; [3H]NE uptake. Type of assay: cell-based. The protocol: MDCK-Net6 cells, stably transfected with human hNET (Pacholczyk, T., R. D. Blakely, and S. G. Amara, Nature, 1991, 350(6316): p. 350-4) were cultured in growth medium containing high glucose DMEM (Gibco, Cat. No. 11995), 10% FBS (dialyzed, heat-inactivated, US Bio-Technologies, Lot FBD1129HI) and 500 µg/ml G418 (Gibco, Cat. No. 10131). Cells were plated at 300,000/T75 flask and cells were split twice weekly. The JAR cell line (human placental choriocarcinoma) was purchased from ATCC (Cat. No. HTB-144). The cells were cultured in growth medium containing RPMI 1640 (Gibco, Cat. No. 72400), 10% FBS (Irvine, Cat. No. 3000), 1% sodium pyruvate (Gibco, Cat. No. 1136) and 0.25% glucose. Cells were plated at 250,000 cells/T75 flask and split twice weekly. For all assays, cells were plated in Wallac 96-well sterile plates (PerkinElmer, Cat. No. 3983498).
On day 1, cells were plated at 3,000 cells/well in growth medium and maintained in a cell incubator (37° C., 5% CO2). On day 2, growth medium was replaced with 200 μl of assay buffer (25 mM HEPES; 120 mM NaCl; 5 mM KCl; 2.5 mM CaCl2; 1.2 mM MgSO4; 2 mg/ml glucose (pH 7.4, 37° C.)) containing 0.2 mg/ml ascorbic acid and 10 μM pargyline. Plates containing cells with 200 μl of assay buffer were equilibrated for 10 minutes at 37° C. prior to addition of compounds. A stock solution of desipramine was prepared in DMSO (10 mM) and delivered to triplicate wells containing cells for a final test concentration of 1 μM. Data from these wells were used to define non-specific NE uptake (minimum NE uptake). Test compounds were prepared in DMSO (10 mM) and diluted in assay buffer according to test range (1 to 10,000 nM). Twenty-five microliters of assay buffer (maximum NE uptake) or test compound were added directly to triplicate wells containing cells in 200 μl of assay buffer. The cells in assay buffer with test compounds were incubated for 20 minutes at 37° C. To initiate the NE uptake, [^3H]NE diluted in assay buffer (120 nM final assay concentration) was delivered in 25 μl aliquots to each well and the plates were incubated for 5 minutes (37° C.). The reaction was terminated by decanting the supernatant from the plate. The plates containing cells were washed twice with 200 μl assay buffer (37° C.) to remove free radioligand. The plates were then inverted, left to dry for 2 minutes, then reinverted and air-dried for an additional 10 minutes. The cells were lysed in 25 μl of 0.25 N NaOH solution (4° C.), placed on a shake table and vigorously shaken for 5 minutes. After cell lysis, 75 μl of scintillation cocktail was added to each well and the plates were sealed with film tape. The plates were returned to the shake table and vigorously shaken for a minimum of 10 minutes to ensure adequate partitioning of organic and aqueous solutions. The plates were counted in a Wallac Microbeta counter (PerkinElmer) to collect the raw cpm data.
For each experiment, a data stream of cpm values collected from the Wallac Microbeta counter was downloaded to a Microsoft Excel statistical application program. Calculations of EC50 values were made using the transformed-both-sides logistic dose response program written by Wyeth Biometrics Department. The statistical program uses mean cpm values from wells representing maximum binding or uptake (assay buffer) and mean cpm values from wells representing minimum binding or uptake ((1 μM desipramine (hNET) or 1 μM paroxetine (hSERT)). Estimation of the EC50 value was completed on a log scale and the line was fit between the maximum and minimum binding or uptake values. All graphic data representation was generated by normalizing each data point to a mean percent based on the maximum and minimum binding or uptake values. The EC50 values reported from multiple experiments were calculated by pooling the raw data from each experiment and analyzing the pooled data as one experiment.

T1 sequence (P23975 whole entry): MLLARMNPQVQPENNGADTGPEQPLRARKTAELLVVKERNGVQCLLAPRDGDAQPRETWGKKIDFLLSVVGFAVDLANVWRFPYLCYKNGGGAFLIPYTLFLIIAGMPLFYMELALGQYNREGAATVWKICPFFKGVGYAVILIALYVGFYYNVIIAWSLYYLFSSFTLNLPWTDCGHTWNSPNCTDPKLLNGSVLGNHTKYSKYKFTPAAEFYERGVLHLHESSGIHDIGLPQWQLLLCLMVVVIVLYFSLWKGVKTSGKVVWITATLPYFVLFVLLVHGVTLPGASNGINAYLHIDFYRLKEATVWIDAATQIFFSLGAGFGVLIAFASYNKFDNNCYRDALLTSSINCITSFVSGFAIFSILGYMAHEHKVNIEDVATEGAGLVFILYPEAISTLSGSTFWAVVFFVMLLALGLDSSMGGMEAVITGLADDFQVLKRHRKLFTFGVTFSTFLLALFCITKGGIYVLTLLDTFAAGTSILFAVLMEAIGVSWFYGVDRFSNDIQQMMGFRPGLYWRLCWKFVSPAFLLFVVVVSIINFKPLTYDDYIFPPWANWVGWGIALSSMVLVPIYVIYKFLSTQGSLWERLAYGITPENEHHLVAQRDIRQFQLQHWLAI

Turning to `CNC[C@@H](O)[C@H](c1cccc(F)c1)N1CC(c2ccccc2)Oc2ccccc21` (stereo partly drawn) [Example 19, (1S,2R)-1-(3-fluorophenyl)-3-(methylamino)-1-(2-phenyl-2,3-dihydro-4H-1,4-benzoxazin-4-yl)propan-2-ol hydrochloride], the inhibition at 1 µM came to 95%.

Turning to `CNC[C@@H](O)[C@H](c1ccccc1)N1CCOc2ccc(Cl)cc21` (single isomer, unassigned) [Example 13, hydrochloride], the inhibition at 1 µM is 38.6%.

Molecule `CNC[C@@H](O)[C@H](c1ccccc1)N1CCN(CC(F)(F)F)c2ccccc21` (racemic) [Example 5, (1SR,2RS)-3-(methylamino)-1-phenyl-1-[4-(2,2,2-trifluoroethyl)-3,4-dihydroquinoxalin-1(2H)-yl]propan-2-ol hydrochloride] displayed an inhibition at 1 µM of 52.9%.

Molecule `CNC[C@@H](O)[C@H](c1ccccc1)N1CCOc2ccccc21` (racemic) [Example 2, (1RS,2SR)-1-(2,3-dihydro-4H-1,4-benzoxazin-4-yl)-3-(methylamino)-1-phenylpropan-2-ol dihydrochloride] had an inhibition at 1 µM of 33.7%.

As for `CNC[C@@H](O)[C@H](c1cccc(F)c1)N1C[C@@H](c2ccccc2)Oc2ccccc21` (single isomer, unassigned) [Example 20, hydrochloride], the inhibition at 1 µM stood at 97.2%.

In turn, `CNC[C@@H](O)[C@H](c1cccc(F)c1)N1CCOc2ccc(Cl)cc21` [Example 15, (1S,2R)-1-(6-chloro-2,3-dihydro-4H-1,4-benzoxazin-4-yl)-1-(3-fluorophenyl)-3-(methylamino)propan-2-ol hydrochloride] had an inhibition at 1 µM of 41.4%.

In turn, `CNC[C@@H](O)[C@H](c1ccccc1)N1CCN(C)c2ccccc21` (racemic) [Example 4, (1SR,2RS)-3-(methylamino)-1-(4-methyl-3,4-dihydroquinoxalin-1(2H)-yl)-1-phenylpropan-2-ol hydrochloride] displayed an inhibition at 1 µM of 46.2%.

Turning to `CNC[C@@H](O)[C@H](c1cc(F)cc(F)c1)N1CCOc2ccc(Cl)cc21` [Example 8, (1S,2R)-1-(6-chloro-2,3-dihydro-4H-1,4-benzoxazin-4-yl)-1-(3,5-difluorophenyl)-3-(methylamino)propan-2-ol hydrochloride], testing at 1 µM gave an inhibition of 12.5%.

Take `CNC[C@@H](O)[C@H](c1cccc(F)c1)N1C[C@H](c2ccccc2)Oc2ccccc21` (single isomer, unassigned) [Example 21, hydrochloride]: the inhibition at 1 µM turned out to be 51.7%.

`CNC[C@@H](O)[C@H](c1ccccc1)N1CCOc2ccc(C)cc21` (racemic) [Example 12, (1RS,2SR)-3-(methylamino)-1-(6-methyl-2,3-dihydro-4H-1,4-benzoxazin-4-yl)-1-phenylpropan-2-ol hydrochloride] yielded an inhibition at 1 µM of 3.4%.

With `CNC[C@@H](O)[C@H](c1ccccc1)N1CCOc2ccc(Cl)cc21` (racemic) [Example 11, (1RS,2SR)-1-(6-chloro-2,3-dihydro-4H-1,4-benzoxazin-4-yl)-3-(methylamino)-1-phenylpropan-2-ol hydrochloride], the inhibition at 1 µM was found to be 60.6%.

On to `CNC[C@@H](O)[C@H](c1cccc(F)c1)N1CC(C)Oc2ccccc21` (stereo partly drawn) [Example 9, (1S,2R)-1-(3-fluorophenyl)-3-(methylamino)-1-(2-methyl-2,3-dihydro-4H-1,4-benzoxazin-4-yl)propan-2-ol hydrochloride], for which 1 µM produced 53.9% inhibition.

Regarding `CNC[C@@H](O)[C@H](c1cccc(F)c1)N1CCSc2ccccc21` [Example 18, (1S,2R)-1-(2,3-dihydro-4H-1,4-benzothiazin-4-yl)-1-(3-fluorophenyl)-3-(methylamino)propan-2-ol hydrochloride], testing at 1 µM gave an inhibition of 90.4%.

Regarding `CNC[C@@H](O)[C@H](c1ccccc1)N1CC(C)(C)Oc2ccccc21` [Example 17, (1S,2R)-1-(2,2-dimethyl-2,3-dihydro-4H-1,4-benzoxazin-4-yl)-3-(methylamino)-1-phenylpropan-2-ol hydrochloride], 1 µM produced 9.3% inhibition.

`CNC[C@@H](O)[C@H](c1cccc(F)c1)N1CC(C)(C)Oc2ccccc21` [Example 16, (1S,2R)-1-(2,2-dimethyl-2,3-dihydro-4H-1,4-benzoxazin-4-yl)-1-(3-fluorophenyl)-3-(methylamino)propan-2-ol hydrochloride] displayed an inhibition at 1 µM of 10%.

Take `CNC[C@H](O)[C@@H](c1ccccc1)N1CCOc2ccc(Cl)cc21` (single isomer, unassigned) [Example 14, hydrochloride]: the inhibition at 1 µM was 41.5%.
